# Reference: patent publication US9663478B2, “Benzotriazine oxides as drugs targeting Mycobacterium tuberculosis” (priority 2011, dated 2017)
# Like-named read-outs stand apart in the source and are kept apart here.
# Legend:
# Mtb H37Rv [1] = experiment: TB MIC - SRI, resazurin-based microplate assay; type: cell-based, Mycobacterium tuberculosis; details: for MIC: Mycobacterium tuberculosis, H37RV
# Mtb H37Rv [2] = experiment: TB MIC - ITR (UIC), Institute for Tuberculosis Research; type: cell-based, Mycobacterium tuberculosis; details: for TB MIC - UIC: Tables P1, P2; for MIC: Mycobacterium tuberculosis, H37RV, read-out: TB MIC - ITR; for MIC / TB MIC - ITR: Tables 1-4
# NRP Mtb H37Rv cells = experiment: Low-oxygen recovery assay (LORA) MIC; type: cell-based, Mycobacterium tuberculosis; details: for LORA MIC: Tables P1, P2, non-replicating M. tuberculosis; for MIC: Mycobacterium tuberculosis, H37RV, read-out: LORA MIC - ITR
# [3] = Tables 1-4 and text, read-out: TB MIC - SRI
SMILES,MIC (Mtb H37Rv [1]; [3]) [µg/mL],"MIC (NRP Mtb H37Rv cells; NRP Mtb, Tables 1-4 and text) [µg/mL]","Vero Tox CC50 (Vero cells; African green monkey, 72 h) [µg/mL]",MIC (Mtb H37Rv [2]) [µg/mL],also measured
[O-][n+]1nc(N[C@@H]2C[C@H]3CC[C@@H]2C3)[n+]([O-])c2ccc(F)cc21 (racemic) [SRI-012280],–,–,–,–,"MIC (Mtb H37Rv [1]; Tables P1-P3, read-out: TB MIC - SRI): 0.312 µg/mL; TB MIC - UIC (Mtb H37Rv [2]): < 0.125 µg/mL; LORA MIC (NRP Mtb H37Rv cells): 0.21 µg/mL; VERO Tox-SRI (Vero cells; African green monkey, 72 h): <2.5"
COCCNC(=O)c1ccc2c(c1)[n+]([O-])c(O)c(C#N)[n+]2[O-] [Cmpd 4],> 20,> 32,>16,–,–
COCCNC(=O)c1ccc2c(c1)[n+]([O-])c(C(C)=O)c(C)[n+]2[O-] [Cmpd 5],10,> 32,>16,27,–
Cc1c(N2CCCC2)[n+]([O-])c2ccccc2[n+]1[O-] [Cmpd 6],> 10,> 32,>16,–,–
"CC(C)(C)Nc1n[n+]([O-])c2ccccc2[n+]1[O-] [Compound 8c, 3-(tert-butylamino)benzo[e][1,2,4]triazine 1,4-dioxide]",1.2,0.82,8.0,1.9,"MIC (Mtb H37Rv [1]; Table 5, read-out: MIC, H37Rv): 2.5 µg/mL"
"[O-][n+]1nc(NC2CCCC2)[n+]([O-])c2ccccc21 [Compound 8e, 3-(cyclopentylamino)benzo[e][1,2,4]triazine 1,4-dioxide]",2.5,0.68,10,3.6,–
"CCCC(C)Nc1n[n+]([O-])c2ccccc2[n+]1[O-] (stereo not shown) [Compound 8h, 3-(pentan-2-ylamino)benzo[e][1,2,4]triazine 1,4-dioxide]",5,0.99,26,1.9,–
"C[C@@H](Nc1n[n+]([O-])c2ccccc2[n+]1[O-])C1CCCCC1 [Compound 8k, (R)-3-((1-cyclohexylethyl)amino)benzo[e][1,2,4]triazine 1,4-dioxide]",1.2,0.36,8.9,0.92,–
"[O-][n+]1nc(N[C@@H]2C[C@H]3CC[C@@H]2C3)[n+]([O-])c2ccccc21 [Compound 8m, 3-((1R,2R,4S)-bicyclo[2.2.1]heptan-2-ylamino)benzo[e][1,2,4]triazine 1,4-dioxide]",0.62,0.42,3.4,0.6,–
"[O-][n+]1nc(N[C@H]2[C@@H]3C[C@H]4C[C@@H](C3)C[C@@H]2C4)[n+]([O-])c2ccccc21 [Compound 8n, 3-((1R,3S,5r,7r)-adamantan-2-ylamino)benzo[e][1,2,4]triazine 1,4-dioxide]",–,–,–,–,"TB MIC - SRI (Mtb H37Rv [1]; Tables 1-4 and text): 2.5 µg/mL; TB MIC - ITR (Mtb H37Rv [2]): 1.9 µg/mL; LORA MIC - ITR (NRP Mtb H37Rv cells; NRP Mtb, Tables 1-4 and text): 2.3 µg/mL; Vero Tox CC50 (Vero cells): 7.3 µg/mL"
"[O-][n+]1nc(NC2CC2)[n+]([O-])c2ccc(F)cc21 [Compound 15ab, 3-(cyclopropylamino)-7-fluorobenzo[e][1,2,4]triazine 1,4-dioxide]",0.31,–,1.3,0.93,MIC (NRP Mtb H37Rv cells): 3.5 µg/mL
"[O-][n+]1nc(NC2CCC2)[n+]([O-])c2ccc(F)cc21 [Compound 15ad, 3-(cyclobutylamino)-7-fluorobenzo[e][1,2,4]triazine 1,4-dioxide]",0.31,–,1.6,0.4,MIC (NRP Mtb H37Rv cells): 0.88 µg/mL
"[O-][n+]1nc(N[C@@H]2C[C@H]3CC[C@@H]2C3)[n+]([O-])c2ccc(F)cc21 [Compound 15am, 3-((1R,2R,4S)-bicyclo[2.2.1]heptan-2-ylamino)-7-fluorobenzo[e][1,2,4]triazine 1,4-dioxide]",0.31,0.21,<2.5,< 0.12,–
"CCNc1n[n+]([O-])c2cc(Cl)ccc2[n+]1[O-] [Compound 15ba, 7-chloro-3-(ethylamino)benzo[e][1,2,4]triazine 1,4-dioxide]",1.2,0.41,2.6,< 0.12,–
"[O-][n+]1nc(NC2CC2)[n+]([O-])c2ccc(Cl)cc21 [Compound 15bb, 7-chloro-3-(cyclopropylamino)benzo[e][1,2,4]triazine 1,4-dioxide]",0.62,0.22,1.3,0.21,–
"[O-][n+]1nc(NC2CCCCC2)[n+]([O-])c2ccc(Cl)cc21 [Compound 15bf, 7-chloro-3-(cyclohexylamino)benzo[e][1,2,4]triazine 1,4-dioxide]",0.62,0.63,2.6,0.94,–
"[O-][n+]1nc(N[C@@H]2C[C@H]3CC[C@@H]2C3)[n+]([O-])c2ccc(Cl)cc21 [Compound 15bm, 3-((1R,2R,4S)-bicyclo[2.2.1]heptan-2-ylamino)-7-chlorobenzo[e][1,2,4]triazine 1,4-dioxide]",0.15,0.23,1.1,0.22,–
"CCNc1n[n+]([O-])c2cc(Br)ccc2[n+]1[O-] [Compound 15ca, 7-bromo-3-(ethylamino)benzo[e][1,2,4]triazine 1,4-dioxide]",0.62,0.46,4.2,0.49,–
"[O-][n+]1nc(NC2CCC2)[n+]([O-])c2ccc(Br)cc21 [Compound 15cd, 7-bromo-3-(cyclobutylamino)benzo[e][1,2,4]triazine 1,4-dioxide]",0.15,0.41,3.8,0.46,–
"[O-][n+]1nc(NC2CCCC2)[n+]([O-])c2ccc(Br)cc21 [Compound 15ce, 7-bromo-3-(cyclopentylamino)benzo[e][1,2,4]triazine 1,4-dioxide]",0.15,0.46,18,0.35,–
"[O-][n+]1nc(N[C@@H]2C[C@H]3CC[C@@H]2C3)[n+]([O-])c2ccc(Br)cc21 [Compound 15cm, 3-((1R,2R,4S)-bicyclo[2.2.1]heptan-2-ylamino)-7-bromobenzo[e][1,2,4]triazine 1,4-dioxide]",0.31,0.41,0.80,0.36,–
"COc1ccc2c(c1)[n+]([O-])nc(NC1CCC1)[n+]2[O-] [Compound 15dd, 3-(cyclobutylamino)-7-methoxybenzo[e][1,2,4]triazine 1,4-dioxide]",0.62,0.9,9.8,0.96,–
"COc1ccc2c(c1)[n+]([O-])nc(N[C@@H]1C[C@H]3CC[C@@H]1C3)[n+]2[O-] [Compound 15dm, 3-((1R,2R,4S)-bicyclo[2.2.1]heptan-2-ylamino)-7-methoxybenzo[e][1,2,4]triazine 1,4-dioxide]",0.62,1.6,>50,0.97,–
"CCNc1n[n+]([O-])c2cccc(C)c2[n+]1[O-] [Compound 15ea, Ethyl-(5-methyl-1,4-dioxy-benzo[1,2,4]triazin-3-yl)-amine]",–,–,–,–,"MIC, H37Rv (Mtb H37Rv [1]; Table 5): 0.62 µg/mL; TB MIC - SRI (Mtb H37Rv [1]; Tables 1-4 and text): 0.62 µg/mL; TB MIC - ITR (Mtb H37Rv [2]): 0.51 µg/mL; LORA MIC - ITR (NRP Mtb H37Rv cells; NRP Mtb, Tables 1-4 and text): 0.48 µg/mL; Vero Tox CC50 (Vero cells): 22 µg/mL"
"CCNc1n[n+]([O-])c2cc(C)c(OC)cc2[n+]1[O-] [Compound 15ga, 3-(ethylamino)-6-methoxy-7-methylbenzo[e][1,2,4]triazine 1,4-dioxide]",2.5,–,>100,3.5,"MIC (Mtb H37Rv [1]; Table 5, read-out: MIC, H37Rv): 1.2 µg/mL"
"CN(Cc1ccccc1)c1n[n+]([O-])c2cc3c(cc2[n+]1[O-])CCC3 [Compound 20t, 3-(benzyl(methyl)amino)-7,8-dihydro-6H-indeno[5,6-e][1,2,4]triazine 1,4-dioxide]",–,0.41,17,–,"MIC (Mtb H37Rv [1]; Table 5, read-out: MIC, H37Rv): 0.31 µg/mL"
CCNc1n[n+]([O-])c2cc(OC)ccc2[n+]1[O-] [SRI-012285],–,–,–,–,"TB MIC - UIC (Mtb H37Rv [2]): 15.1 µg/mL; LORA MIC (NRP Mtb H37Rv cells): 16.2 µg/mL; VERO Tox-SRI (Vero cells; African green monkey, 72 h): 15.8"
